# Test results as given in patent US10494453B2, “Conjugate compound and uses of same” (THE UNIVERSITY OF QUEENSLAND, priority 2013, dated 2019).
# Where two headings read alike, the source gives them in different places.
# Experiments:
# [1] = system: MPCs; assay: DMMB assay for GAG content of chondrogenic MPC pellets; format: cell-based, human
# Description: (§1) Chondrogenic differentiation was compared for MPCs cultured in maintenance medium and treated with PPS, HA, HA-PPS and HA-PPSCOOH at concentrations equivalent to 5, 10 and 20 μg/ml unbound PPS. These factors were added to the cells prior to pellet formation, which was initiated by centrifuging 2×105 MPCs in a non-adherent U-bottom plate at 500 g for 10 min. MPC pellets were cultured in […] medium with media changes every 3-4 days. After 21 days, samples were taken for analysis by histological staining, DMMB assay and qPCR.
# Chondrogenic pellets were collected, rinsed in PBS and lysed in 1 mg/ml Papain in 100 mM sodium phosphate, 5 mM EDTA and 5 mM L-cystein (pH 6.5) overnight at 60° C. Samples of 40 μl were plated in triplicate with the addition of 10 μl 1% BSA in PBS and 50 μl 2×1,9-dimethylmethylene blue (DMMB). These were incubated at room temperature for 15 min and the absorbance at 525 nm read using a Spectramax M5 Fluorometer (Molecular Devices). Samples were normalized to DNA content as assessed by PicoGreen assay (Molecular Probes: performed according to the manufacturer's instructions).
# [2] = system: MPCs; assay: CCK8 assay of MPC proliferation; format: cell-based, human; conditions: 7 days; concentrations equivalent to 5, 10 and 20 μg/ml unbound PPS
# Description: (§2) Stro1-selected human MPCs were prepared by Lonza (Walkersville, USA) for Mesoblast Ltd (Melbourne, Australia) according to the isolation procedure described by Gronthos et al. MPCs were cultured in alphaMEM supplemented with 100 U/ml penicillin, 100 μg/ml streptomycin (Gibco/Invitrogen Carlsbad, Calif., USA), 10% batch tested foetal bovine serum (FBS), 2 mM L-Glutamine, 1 mM Sodium Pyruvate, and 100 μM L-ascorbate-2-Phosphate. Tissue culture flasks were maintained at 37° C. in 5% CO2 in an atmosphere with 95% humidity. Upon reaching 70% confluence MPCs were passaged, replating at 2000 cells/cm2.
# MPCs were seeded at a density of 2000 cells/cm2 in a 96-well plate and allowed to adhere for 4 hrs at which point the medium was exchanged for MPC maintenance medium supplemented with PPS, HA, HA-PPS and HA-PPSCOOH at concentrations equivalent to 5, 10 and 20 μg/ml unbound PPS. MPCs were cultured for 7 days with media changes every 2-3 days and the cell number determined by CCK8 assay (Sigma). Briefly, the culture medium was replaced with 100 μl MPC maintenance medium (without phenol red) containing 10% (v/v) CCX8. After 2 hrs the absorbance was read at 450 nm. All samples were performed in triplicate and normalised to blank medium without cells.
# [3] = system: MPCs; assay: qPCR gene expression of MPC pellets (chondrogenic differentiation); format: cell-based, human; conditions: for Expression of BMP13: over untreated controls
# Description: as §2, §1
# Total RNA was extracted using an RNeasy Minikit with on-column DNase treatment (Qiagen) according to the manufacturer's instructions, cDNA was synthesized from 250 ng RNA, or the equivalent volume of DNase and RNasefree water for no-RT controls, using the SuperScript® III First-Strand Synthesis System (Invitrogen). qPCR reactions were set-up in a total volume of 10 μl with 1× Platinum SYBR Green qPCR SuperMix-UDG (Invitrogen) and 0.2 μM forward and reverse primers. A 7500 Fast Real-Time PCR System (Applied Biosystems) with fast cycling parameters of 2 min at 50° C., 2 min at 95° C. then 40 cycles of 3 sec at 95° C. and 30 sec at 60° C. followed by a melt curve was used to run the samples. Data was analysed using the 2-^ΔΔct method and normalized back to untreated monolayer levels.
# [4] = system: MPCs; conditions: cited from earlier work; for Promotion of chondrogenesis of MPCs: absent growth factors or other chondroinductive supplements
# [5] = Rheological characterisation of PEG/HA hydrogels; format: physicochemical; conditions: incorporated into PEG/HA hydrogel
# Description: All rheological measurements were obtained using an AR G2 rheometer (TA Instruments, New Castle, Del.) in oscillatory mode using a 20 mm diameter stainless steel flat plate and lower Teflon Pelletier surface. The gels were synthesized and, upon addition of the H2O2, immediately vortexed and loaded between the plates of the rheometer with a gap measurement of 1000 μm. Gelation kinetics and final moduli were determined by timesweeps at 37° C., conducted with a controlled strain of 1% and an angular frequency of 6.28 rad/sec. Frequency sweeps were performed between 5.000E-3 to 50 rad/sec at 1% strain. Stress sweeps confirmed that this was within the linear viscoelastic region.
# [6] = system: MPCs; assay: Collagen-II immunofluorescence of MPC/hydrogel composites; format: cell-based, human; conditions: compared to gels alone
# Description: (§3) MPCs (P4-6) were encapsulated in gels containing 15 mg/ml HATYR, 16.5 mg/ml PEGHPA. 0.25 U/ml horseradish peroxidase (HRP) and varying amounts of hydrogen peroxide (H2O2). Soluble PPS was added into the gels prior to crosslinking at a final concentration of 5 μg/ml. HA-PPS and HA-PPSCOOH were incorporated at concentrations of 16 μg/ml and 9 μg/ml respectively giving a concentration of PPS equivalent to 5 μg/ml unbound PPS.
# (§4) MPCs were resuspended to a concentration of 5×10^6 cells/ml in solution containing all of the components except H2O2 and thoroughly mixed. Crosslinking was then initiated by the addition of H2O2 and the gels spotted out into lowbinding tissue culture plates. After 15 minutes, growth media was added to the well and the cell/gel composites cultured for up to 21 days with media changes every 3-4 days.
# Samples were fixed in 4% paraformaldehyde for 20 min and rinsed with PBS. To detect Collagen-II, the samples were digested with 0.01% pepsin (w/v) in 0.01M HCL (pH2) for 30 min at 37° C. and incubated in 0.1% Triton-X-100 for […] at RT° C. before blocking in 2% BSA/2% goat serum for 1 hr. A Collagen-II antibody (Abram ab3092) was used at a dilution of 1/50 for 2 hrs followed by incubation with an AlexFluor 488-conjugated secondary antibody for 1 hr. […]
# [7] = Swelling of hydrogels; format: physicochemical; conditions: incorporated into the hydrogels; p<0.05
# Description: To determine the degree of swelling, 50 μl gels were synthesized and the dry weight obtained after freeze-drying for 24 hrs (Wd). The gels were then incubated in 500 μl PBS for 24 hrs at […]. The PBS was removed and the gels reweighed (Ws). The degree of swelling was determined by ((Ws-Wd)/Wd) using triplicate gels for each condition. Degradation of 50 μl gels was measured over a period of 3 months using triplicate samples for each condition. After synthesis, the gels were incubated in PBS/0.01% Sodium azide at 37° C. with weekly changes of buffer. At specific tirnepoints all excess PBS was removed and the gels weighed. The degree of degradation was expressed as a % of the original gel mass.
# [8] = system: MPCs; assay: Live/dead staining of MPCs encapsulated in HA/PEG hydrogels; format: cell-based, human; conditions: HA/PEG hydrogels containing the substance; 24 hrs and 7 days
# Description: as §3, §4
# [9] = absence of differentiation factors
substance,measurement,setting,value
hyaluronic acid [HA],GAG production by MPCs,[1]; exposure of MPCs to substance alone,did not produce any increase in GAG production
same,MPC proliferation (CCK8 assay),[2],did not have this effect
same,Expression of BMP13,[3]; [9],no effect
same,Proteoglycan (PG) synthesis by MPCs,[4]; higher concentrations,inhibited PG synthesis
same,Proteoglycan (PG) synthesis by MPCs,[4]; low concentrations,showed some stimulation
heparin,Promotion of chondrogenesis of MPCs,[4],did not show any success
pentosan polysulfate [PPS],Gelation process of hydrogel,[5],slows the gelation process
same,Resulting modulus of hydrogel,[5],small decrease in resulting modulus
same,Deposition of collagen-II around encapsulated MPCs,[6],increased
same,GAG content (DMMB assay),"[1]; % of untreated pellets, after 21 days, no additional chondrogenic factors",150%
same,Expression of osteogenic transcription factor Runx2,"[3]; absence of any differentiation factors, vs untreated controls",small but significant decrease
same,Expression of the BMP antagonist Noggin,[3]; [9],decreased
same,Expression of BMP13,[3]; [9],significantly increased
same,Promotion of chondrogenesis of MPCs,[4],induced the in vitro proliferation and chondrogenic differentiation of MPCs
same,Change in swelling of hydrogel,[7],decreased
same,Viability of encapsulated MPCs,[8],retained good viability
dextran sulphate,Promotion of chondrogenesis of MPCs,[4],did not show any success
